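48-hour exposure; five concentrations; linearly interpolated endpoints. At the GI50, growth is halved. TGI denotes the concentration required for complete inhibition of growth.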 Where only a bound is given, the exact number is not on record here.

We go through 31 compounds from PubChem BioAssay (NCI).

Holding throughout (assay): NCI anticancer screen, dose series, 48 h
The test system of assay [1] is CAKI-1 renal.
The test system of assay [2] is CCRF-CEM leukemia.
Assay [3] concerns K-562 leukemia.
The subject of assay [4] is OVCAR-8 ovarian.
Assay [5] has as its system SF-268 CNS.
For assay [6], the system named is SF-295 CNS.
Assay [7] concerns SK-OV-3 ovarian.
In assay [8] the test system is UO-31 renal.
Assay [9] relates to RXF 393 renal.
Assay [10] relates to OVCAR-4 ovarian.

For the compound `Cc1nn(C(=O)Cc2ccccc2)c2c1C(c1ccccc1)SC(N)=N2` (stereo not drawn), the TGI in [1], in [2], in [3], in assay [4], in [5] and in assay [6] was greater than 100 µM throughout. For the same compound, the TGI in assay [7] and in assay [8] was greater than 100 µM in each case.
For the compound `COc1ccc(S(=O)(=O)n2c3c(c4ccccc42)[C@@H]2[C@@H](CCCN2C(=O)CS(=O)c2ccc(C)cc2)[C@H](Cl)C3)cc1` (stereo partly drawn), the TGI in assay [1], in [2], in assay [3], in assay [4], in [9] and in [5] was greater than 100 µM in each case. Also, the TGI in assay [6], in assay [7] and in assay [8] was greater than 100 µM throughout.
As to `CSC(=O)c1sc(SC)[n+](-c2ccccc2)c1O`, the TGI was 38.1 µM in assay [2]; greater than 100 µM in [3]; 24.9 µM in assay [10]; 59.7 µM in assay [4]; 28 µM in assay [9]; 31.2 µM in assay [5]. In addition, the TGI in assay [6] was 32 µM; in assay [7] it was greater than 100 µM; in assay [8] it was 31.4 µM.
For `Cc1[nH]c(=O)nc2sc(=NC3CCCCC3)n(C3CCCCC3)c(=O)c12`, the TGI in assay [1], in assay [2], in assay [3], in assay [10], in assay [4] and in [6] was greater than 100 µM in each case. The TGI in assay [7] and in [8] was greater than 100 µM throughout.
Consider `COc1cc(OCCN(C)C)c2[nH]c(C(=O)N3CC(CCl)c4ccc(N)cc43)cc2c1` (stereo not drawn), for which the TGI in assay [2] was 0.0684 µM; in assay [3] it was greater than 100 µM; in assay [10], 1.32 µM; in assay [9] it was 0.033 µM; in assay [5], 0.908 µM; in [7], 32 µM. For the same compound, the TGI in assay [8] is 2.25 µM.
As to `COc1cc(-c2cccs2)sc1-c1cccs1`, the TGI is greater than 100 µM in [2]; 51.5 µM in [3]; greater than 100 µM in [10]; greater than 100 µM in assay [4]; 54.1 µM in [9]; greater than 100 µM in [5]. The TGI in [6], in [7] and in assay [8] was greater than 100 µM in each case.
In the case of `CON(C)C(=O)C(C)N(Cc1ccccc1)Cc1ccccc1` (stereo not drawn), the TGI in assay [2], in assay [3], in assay [4], in assay [9], in assay [5] and in assay [6] was greater than 100 µM each time. The TGI in assay [7] and in assay [8] was greater than 100 µM throughout.
As for `CC(C)=C[C@H]1C[C@H](C)[C@H]2CC[C@H](C)c3c2c1c(C)c1ncoc31`, the TGI in assay [1] is 35.5 µM; in assay [2] it was 39.6 µM; in assay [3], greater than 100 µM; in [10] it was 34.1 µM; in [4], 36.8 µM; in [9], 25.7 µM. Moreover, the TGI in assay [5] was 46 µM; in [6], 31.2 µM; in assay [8] it was 31.5 µM.
Consider `COC(=O)CC(C)(NS(=O)c1ccc(C)cc1)c1ccccc1` (stereo not drawn), for which the TGI in assay [3], in assay [10], in assay [9], in [5], in assay [6] and in assay [7] was greater than 100 µM throughout. This compound gave a TGI in [8] greater than 100 µM.
In the case of `C/C(=N\NC(N)=S)c1ccc2c(c1)Sc1ccccc1O2`, the TGI in [1] is 4.37 µM; in assay [2], greater than 100 µM; in [3], greater than 100 µM; in assay [10], 57.1 µM; in assay [4] it was 7.16 µM; in assay [5], 8.36 µM. The TGI in assay [6] was greater than 100 µM; in [7], 39.5 µM; in assay [8] it was 28.3 µM.
`Cc1cn(C2OC(CO[Si](C)(C)C(C)(C)C)C(N(C)O[Si](C)(C)C(C)(C)C)C2[Se]c2ccccc2)c(=O)[nH]c1=O` (stereo not drawn): the TGI in assay [2] is greater than 100 µM; in [3] it was greater than 100 µM; in assay [10], 8.58 µM; in assay [4] it was 24.6 µM; in [5] it was 10.2 µM; in assay [6], 26 µM. In addition, the TGI is greater than 100 µM in assay [7] and 13.7 µM in assay [8].
Consider `Cc1ccc2nc(-c3ccccc3)cc(=O)n2c1`, for which the TGI in [2], in assay [3], in [10], in assay [4], in assay [9] and in assay [5] was greater than 100 µM in each case. In addition, the TGI in assay [6] and in [7] was greater than 100 µM in each case.
For the compound `Cc1ccc(S[C@@H](C)[C@@](O)(CF)CN(Cc2ccccc2)C(=O)C(F)(F)F)cc1`, the TGI in assay [1] is 99.7 µM; in assay [2] it was greater than 100 µM; in assay [10], 34.2 µM; in assay [4] it was greater than 100 µM; in assay [5], greater than 100 µM; in [8], 31 µM.
As to `CCn1cnc2c(=S)nc(N)[nH]c21`, the TGI in assay [2], in assay [3], in assay [4], in [9], in [5] and in assay [6] was greater than 100 µM each time. The TGI in assay [7] and in [8] was greater than 100 µM throughout.
On to `COc1cc(/C=C2\CN(S(=O)(=O)c3ccc(C)cc3)C/C(=C\c3cc(CN4CCCC4)c(O)c(OC)c3)C2=O)cc(CN2CCCC2)c1O`, for which the GI50 is 1.76 µM in assay [1]; 0.0535 µM in assay [2]; 1.34 µM in assay [10]; 0.71 µM in assay [4]; 2.23 µM in assay [6]; 1.51 µM in [8]. Also, the TGI in assay [1] is 3.28 µM; in assay [2] it was 3.74 µM; in assay [10] it was 2.69 µM; in [4], 2.92 µM; in assay [6], 5.07 µM; in [8] it was 2.96 µM.
Regarding `N=c1oc2ccccc2cc1C(=O)NC12CC3CC(CC(C3)C1)C2`, the TGI in assay [2] was 17.2 µM; in [3], 72.1 µM; in assay [10], greater than 86.8 µM; in assay [4], greater than 100 µM; in assay [9], 24.2 µM; in assay [5], greater than 100 µM. The TGI came out at 67.4 µM in assay [6], 53.5 µM in assay [7] and 0.471 µM in assay [8].
In the case of `CCOC(=O)c1cc(-c2ccc(OC)cc2)c([N+](=O)[O-])n1C`, the TGI in assay [2] is greater than 10 µM; in [3], greater than 10 µM; in assay [10], greater than 10 µM; in [4], greater than 10 µM; in assay [9], 4.81 µM; in [5] it was greater than 10 µM. The TGI in assay [6] and in assay [8] was greater than 10 µM throughout.
On to `CCNC(=O)c1ccc(C)c(N=NN(C)C)c1`, for which the TGI in assay [1], in [10], in assay [4], in [5], in [6] and in [8] was greater than 100 µM in each case.
Turning to `CCOC(=O)/C(C#N)=C/c1coc2cc(C)cc(C)c2c1=O`, the TGI in [1], in assay [2], in assay [3], in assay [4], in assay [9] and in [5] was greater than 100 µM each time. The TGI in [6], in assay [7] and in [8] was greater than 100 µM in each case.
Consider `O=C1/C(=C/c2ccco2)NC(=S)N1CN1CCCCC1`, for which the TGI in assay [2] was greater than 100 µM; in assay [3] it was greater than 100 µM; in assay [10], 86 µM; in [4], greater than 100 µM; in [5], greater than 100 µM; in [6] it was greater than 100 µM. Moreover, the TGI in [7] and in assay [8] was greater than 100 µM throughout.
Turning to `COc1ccc(NC(=S)c2ccc(CN3CCCCC3)s2)cc1`, the TGI is 77.3 µM in assay [1]; 34.5 µM in assay [2]; 42.1 µM in [3]; greater than 100 µM in [10]; 45.4 µM in assay [4]; greater than 100 µM in [5]. The TGI in assay [6] is 38.1 µM; in assay [7], 31.8 µM; in assay [8], 35.7 µM.
Regarding `CO[C@](C(=O)OC[C@H]1[C@@H](COC(C)=O)[C@@H]2O[C@H]1c1cc3c(cc12)OCO3)(c1ccccc1)C(F)(F)F`, the TGI in assay [1] is greater than 100 µM; in [2], greater than 100 µM; in assay [10], greater than 100 µM; in [5] it was 77.1 µM; in assay [6] it was 58.6 µM; in assay [7], greater than 100 µM. Besides, in [8], the TGI came out at 55.4 µM.
Regarding `Cc1cc(OC(=O)Nc2cccc3ccccc23)c(C(C)C)cc1C(=S)Nc1ccccc1`, the TGI in [1] amounted to 54.7 µM; in [2] it was 27.5 µM; in [3], 43.2 µM; in assay [10], 35 µM; in [4] it was 28.8 µM; in assay [5], 77.6 µM. For the same compound, the TGI came to 36.8 µM in [6], 51.7 µM in assay [7] and 40.2 µM in [8].
Turning to `CCOC(=O)c1nnn(CCCCO)c1C(=O)OCC`, the TGI in assay [1], in [2], in assay [10], in assay [4], in [9] and in assay [5] was greater than 100 µM throughout. Also, the TGI in [6] and in assay [8] was greater than 100 µM in each case.
`COC(=O)c1ccc(Cc2cc(Cc3ccc(C(=O)OC)cc3)cc(Cc3ccc(C(=O)OC)cc3)c2)cc1`: the TGI in [3], in assay [10], in [4], in assay [5], in assay [6] and in [7] was greater than 25 µM throughout. Moreover, the TGI in [8] is greater than 25 µM.
On to `N#C/C(N)=C(\C#N)NC=NCCO`, for which the TGI in assay [1], in assay [2], in [3], in assay [10], in [4] and in assay [5] was greater than 100 µM each time. Also, the TGI in assay [6], in assay [7] and in [8] was greater than 100 µM throughout.
As to `CCOC(=O)CCCSCCCC(=O)CCCSCCCC(=O)OCC`, the TGI in [2], in assay [3], in assay [10], in assay [4], in assay [5] and in assay [6] was greater than 100 µM throughout. In addition, the TGI in [7] and in assay [8] was greater than 100 µM in each case.
As to `Nc1nc(Cl)cc(OCC2(CO)CC=CC2)n1`, the TGI in assay [2], in [3], in assay [10], in assay [4], in [9] and in assay [5] was greater than 100 µM each time. The compound also had a TGI in assay [6] greater than 100 µM.
On to `COc1ccc(C2Oc3cc(OC)c(OC)cc3C2CCl)cc1OC` (stereo not drawn), for which the TGI in [1], in assay [2], in assay [3], in assay [10], in assay [4] and in assay [5] was greater than 100 µM each time. This compound also gave a TGI in [8] greater than 100 µM.
Consider `Cc1ccc(Nc2nc(NNC(=O)Cc3ccccc3)nc(NNC(=O)c3ccncc3)n2)cc1`, for which the TGI in assay [1], in assay [2], in assay [3], in assay [10], in [4] and in [5] was greater than 10 µM each time. Besides, the TGI in assay [7] and in [8] was greater than 10 µM in each case.
On to `CCOC(=O)C12OC(OCC)(CC1(OCC)OCC)C1(CC1)C2=O` (stereo not drawn), for which the TGI in assay [1], in assay [2], in [3], in [10], in assay [4] and in [5] was greater than 100 µM in each case. Also, the TGI in assay [6], in [7] and in assay [8] was greater than 100 µM throughout.
